From article PMC3880613 (Journal of medicinal chemistry, 2013)

What was measured:
PC43-10 cells (hRFC) = details: read-out: IC50 growth inhibition PC43-10; cited from earlier work
FRα = FRα (Homo sapiens, UniProt P15328); test: FR binding assay, competition with [3H]folic acid on RT16 cells; details: RT16 CHO cells, pH 7.4, [3H]folic acid 50 nM, 0°C; Figure 3, in words
FRβ = FRβ (Homo sapiens, UniProt P14207); test: FR binding assay, competition with [3H]folic acid on D4 cells; details: D4 CHO cells, pH 7.4, [3H]folic acid 50 nM, 0°C; Figure 3, in words
[1] = system: KB human nasopharyngeal carcinoma cells (hRFC/FRα/hPCFT); test: Growth inhibition assay, KB human tumor cells; details: 96 h, read-out: IC50 growth inhibition KB

Sequence of FRα (P15328 25-257): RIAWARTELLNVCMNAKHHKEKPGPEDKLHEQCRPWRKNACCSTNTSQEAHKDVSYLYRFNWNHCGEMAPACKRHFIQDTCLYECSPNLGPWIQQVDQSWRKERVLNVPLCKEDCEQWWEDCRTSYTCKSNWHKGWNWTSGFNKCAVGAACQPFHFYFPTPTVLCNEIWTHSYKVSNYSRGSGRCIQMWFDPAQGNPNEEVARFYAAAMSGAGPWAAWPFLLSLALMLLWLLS
Sequence of FRβ (P14207 17-255): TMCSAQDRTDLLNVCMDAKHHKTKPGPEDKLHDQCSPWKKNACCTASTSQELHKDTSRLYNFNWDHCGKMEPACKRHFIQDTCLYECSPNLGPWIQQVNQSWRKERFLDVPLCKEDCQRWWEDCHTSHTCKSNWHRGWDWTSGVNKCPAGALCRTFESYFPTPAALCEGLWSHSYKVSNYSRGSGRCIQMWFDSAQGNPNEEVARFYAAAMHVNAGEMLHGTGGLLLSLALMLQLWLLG

Nc1nc2[nH]c(CCCCc3ccc(C(=O)N[C@@H](CCC(=O)O)C(=O)O)cc3)cc2c(=O)[nH]1 [2b]
IC50 (PC43-10 cells (hRFC)): > 1000 nM

Nc1nc2[nH]c(CCCCCCCCC(=O)N[C@@H](CCC(=O)O)C(=O)O)cc2c(=O)[nH]1 [3d, (S)-2-(9-(2-Amino-4-oxo-4,7-dihydro-3H-pyrrolo[2,3-d]pyrimidin-6-yl)nonanamido)pentanedioic acid]
Relative binding affinity to FRα (folic acid = 1.0) (FRα): approximating those for compounds 2a and 2b
Relative binding affinity to FRβ (folic acid = 1.0) (FRβ): approximating those for compounds 2a and 2b

Nc1nc2[nH]c(CCCCCC(=O)O)cc2c(=O)[nH]1 [7e, 6-(2-Amino-4-oxo-4,7-dihydro-3H-pyrrolo[2,3-d]pyrimidin-6-yl)hexanoic acid]
IC50 [1]: > 1000 nM

Nc1nc2[nH]c(CCCCCCC(=O)O)cc2c(=O)[nH]1 [7f, 7-(2-Amino-4-oxo-4,7-dihydro-3H-pyrrolo[2,3-d]pyrimidin-6-yl)heptanoic acid]
IC50 [1]: > 1000 nM

Nc1nc2[nH]c(CCCCCCCC(=O)O)cc2c(=O)[nH]1 [7g, 8-(2-Amino-4-oxo-4,7-dihydro-3H-pyrrolo[2,3-d]pyrimidin-6-yl)octanoic acid]
IC50 [1]: > 1000 nM

Nc1nc2[nH]c(CCCCCCCCC(=O)O)cc2c(=O)[nH]1 [7h, 9-(2-Amino-4-oxo-4,7-dihydro-3H-pyrrolo[2,3-d]pyrimidin-6-yl)nonanoic acid]
Relative binding affinity to FRα (folic acid = 1.0) (FRα): detectable binding
IC50 [1]: > 1000 nM
